Results: patent publication US20050049293A1, “Use of cholinesterase antagonists to treat insulin resistance” (priority 2002, published 2005)
Like-named read-outs stand apart in the source and are kept apart here.

Columns and labels:
[1] = tested on: atropine-induced HISS-dependent insulin resistance (HDIR); assay: Rapid insulin sensitivity test (RIST) in atropine model of 75% HDIR, reversal with neostigmine (Example 1); settings: neostigmine 1 μg/kg/min ipv
[2] = tested on: HISS-dependent insulin resistance in sucrose-fed rats; assay: RIST during neostigmine infusion in liquid sucrose-fed rats (Example 3); type: in vivo; settings: portal vein infusion
From the text: Since both forms of diet produced the same degree of HDIR, the model of sucrose feeding using the liquid diet was used to determine whether this HDIR was reversible with the anticholinesterase agent, neostigmine.
The model of insulin resistance produced by the 35% liquid sucrose diet (in addition to regular rodent food pellets and normal drinking water) was identical to the protocol described above for the assessment of HDIR in sucrose-fed rats.
The surgical preparation was identical to that described above for sucrose-fed rats tested for HDIR. In addition, a laparotomy and portal vein cannulation were carried out. […] Following a laporotomy, the portal vein was cannulated.
After conducting a control RIST, neostigmine was infused into the portal vein for at least […] before a second RIST was conducted to determine if this agent could reverse the insulin resistance. The doses of neostigmine were 1 and 2 μg/kg/min.

[3] = tested on: hepatic muscarinic receptors (insulin resistance); settings: cats, cited from earlier work
[4] = control RIST index 94.8±11.2 mg/kg

In the case of `CN(C)C(=O)Oc1cccc([N+](C)(C)C)c1` [neostigmine], the “RIST index during constant infusion of neostigmine” value ([1]; after atropine-induced 75% HDIR (blocked state 90.5±[…])) is reported as 152.6 ± 15.2 mg/kg, the “Reversal of HDIR produced by atropine” value ([1]; FIG. 1) is reported as “able to reverse the HDIR” and the “Reversal of insulin resistance at 1 μg/kg/min” value ([2]; FIG. 3) is reported as “did not produce a reversal of insulin resistance”. The “RIST index during neostigmine 1 μg/kg/min” value [2, 4] was 80.9 ± 27.3 mg/kg and the “RIST index during neostigmine 2 μg/kg/min” value [2, 4] was 178.0 ± 17.7 mg/kg.

For `COc1ccccc1CNCCCCCCNCCCCCCCCNCCCCCCNCc1ccccc1OC` [methoctramine], the “Dose achieving a similar degree of insulin resistance” value ([3]; M2 selective antagonist) is listed as 10^−6 μmol/kg.

For `CN1CCN(CC(=O)N2c3ccccc3C(=O)Nc3cccnc32)CC1` [pirenzepine], the “Dose achieving a similar degree of insulin resistance” value ([3]; M1 muscarinic selective antagonist) is given as 10^−7 mmol/kg.
